# Values joined by “and” are separate entries in the source; they are usually repeats but may differ in a detail not shown here. Equal values may be shown once.
# Legend:
# L1210 = experiment: Cytotoxicity, L1210; assay type: cell-based
# [1] = In vivo tolerance study, I.V. dosing (tail vein); design: species or system Balb/c mice
# Procedure: Ten Balb/c mice were split into three groups: untreated, vehicle and clodronate prodrug. Untreated mice received no treatment or injection. The vehicle was 100 μL 10% cremaphor in ddH20 injected into the tale vein. 100 μL of 3 mM Clodronate Prodrug dissolved in 10% cremaphor in ddH20. (100 μL of 3 mM is about 14 mg/kg).
# [2] = In vivo tolerance study, intraperitoneal dosing; design: species or system Balb/C mice; conditions: listed as clodronate prodrug
# Procedure: Thirteen Balb/C mice were split into four groups; untreated, vehicle, dose 1 and dose 2. Untreated mice received no treatment or injection. The vehicle was 100 μL of corn oil. Mice receiving dose 1 received 100 μL of 30 mM clodronate prodrug dissolved in corn oil (2.17 mg/dose), which is about 110 mg/kg dose. Mice receiving dose 2 received 100 μL of 50 mM clodronate prodrug dissolved in corn oil (3.61 mg/dose), which is about a 200 mg/kg dose. Mice were dosed on Monday of each week for two weeks. The weights were measured for 4 consecutive days following dosing.
# MOLT-4 = experiment: NCI-60 DTP Human Tumor Cell Line Screen; assay type: cell-based; conditions: MOLT-4, Leukemia, 48 h
# RPMI-8226 = experiment: NCI-60 DTP Human Tumor Cell Line Screen; assay type: cell-based; conditions: RPMI-8226, Leukemia, 48 h
# SR = experiment: NCI-60 DTP Human Tumor Cell Line Screen; assay type: cell-based; conditions: Leukemia, 48 h
# A549/ATCC = experiment: NCI-60 DTP Human Tumor Cell Line Screen; assay type: cell-based; conditions: Non-Small Cell Lung Cancer, 48 h
# HOP-62 = experiment: NCI-60 DTP Human Tumor Cell Line Screen; assay type: cell-based; conditions: HOP-62, Non-Small Cell Lung Cancer, 48 h
# NCI-H322M = experiment: NCI-60 DTP Human Tumor Cell Line Screen; assay type: cell-based; conditions: Non-Small Cell Lung Cancer, 48 h
# NCI-H522 = experiment: NCI-60 DTP Human Tumor Cell Line Screen; assay type: cell-based; conditions: NCI-H522, Non-Small Cell Lung Cancer, 48 h
# HCC-2998 = experiment: NCI-60 DTP Human Tumor Cell Line Screen; assay type: cell-based; conditions: HCC-2998, Colon Cancer, 48 h
# KM12 = experiment: NCI-60 DTP Human Tumor Cell Line Screen; assay type: cell-based; conditions: KM12, Colon Cancer, 48 h
# SF-268 = experiment: NCI-60 DTP Human Tumor Cell Line Screen; assay type: cell-based; conditions: SF-268, CNS Cancer, 48 h
# SF-295 = experiment: NCI-60 DTP Human Tumor Cell Line Screen; assay type: cell-based; conditions: SF-295, CNS Cancer, 48 h
# M14 = experiment: NCI-60 DTP Human Tumor Cell Line Screen; assay type: cell-based; conditions: M14, Melanoma, 48 h
# SK-MEL-5 = experiment: NCI-60 DTP Human Tumor Cell Line Screen; assay type: cell-based; conditions: SK-MEL-5, Melanoma, 48 h
# NCI/ADR-RES = experiment: NCI-60 DTP Human Tumor Cell Line Screen; assay type: cell-based; conditions: Ovarian Cancer, 48 h
# A498 = experiment: NCI-60 DTP Human Tumor Cell Line Screen; assay type: cell-based; conditions: A498, Renal Cancer, 48 h
# UO-31 = experiment: NCI-60 DTP Human Tumor Cell Line Screen; assay type: cell-based; conditions: UO-31, Renal Cancer, 48 h
# PC-3 = experiment: NCI-60 DTP Human Tumor Cell Line Screen; assay type: cell-based; conditions: PC-3, Prostate Cancer, 48 h
# DU145 = experiment: NCI-60 DTP Human Tumor Cell Line Screen; assay type: cell-based; conditions: DU145, Prostate Cancer, 48 h
# MCF7 = experiment: NCI-60 DTP Human Tumor Cell Line Screen; assay type: cell-based; conditions: MCF7, Breast Cancer, 48 h
# HS 578T = experiment: NCI-60 DTP Human Tumor Cell Line Screen; assay type: cell-based; conditions: Breast Cancer, 48 h
structure (smiles),measurement,setting,value
CN(CCCCCl)P(=O)(OCc1ccc([N+](=O)[O-])cc1)C(Cl)(Cl)P(=O)(OCc1ccc([N+](=O)[O-])cc1)N(C)CCCCCl (stereo not shown) [compound 14],IC50,L1210,11.7 ± 1.78 µM
same,Mouse weight,"[1]; Mar. 21, 2011, i.v. 100 μL of 3 mM (about 14 mg/kg), individual mice, listed as cloprodrug",15.9 g and 14.5 g and 15.6 g
same,Δ in weight,"[1]; Mar. 21 to Mar. 28, 2011, i.v. about 14 mg/kg, individual mice, listed as cloprodrug",2.2 g and 2.7 g and 0.6 g
same,Mouse weight,"[1]; Mar. 23, 2011, i.v. about 14 mg/kg, individual mice, listed as cloprodrug",17.6 g and 16.4 g and 16.2 g
same,Mouse weight,"[1]; Mar. 25, 2011, i.v. about 14 mg/kg, individual mice, listed as cloprodrug",18.2 g and 16.8 g and 16.4 g
same,Mouse weight,"[1]; Mar. 28, 2011, i.v. about 14 mg/kg, individual mice, listed as cloprodrug",18.1 g and 17.2 g and 16.2 g
same,behavior,[1]; i.v. about 14 mg/kg,no unusual behavior observed
same,difference in weight between the three treatment groups,[1]; i.v. about 14 mg/kg vs vehicle and untreated,no significant difference in weight
same,Wt,"[2]; Dose 1 (about 110 mg/kg i.p.), week 1, Apr. 11, 2011, individual mice",19.2 g and 18.3 g and 19.4 g
same,Wt,"[2]; Dose 1, 2nd week of treatment, Apr. 18, 2011",19.3 g and 18.8 g and 18.4 g
same,Wt,"[2]; Dose 1, 2nd week, Apr. 19, 2011",19.3 g and 18.9 g and 18.3 g
same,Wt,"[2]; Dose 1, 2nd week, Apr. 20, 2011",19.4 g and 18.9 g and 18.4 g
same,Wt,"[2]; Dose 1, 2nd week, Apr. 21, 2011",19.1 g and 18.9 g and 18.6 g
same,Wt,"[2]; Dose 1, 2nd week, Apr. 22, 2011",19.3 g and 19.2 g and 18.3 g
same,Wt,"[2]; Dose 1, week 1, Apr. 12, 2011",19.3 g and 18.1 g and 18.4 g
same,Wt,"[2]; Dose 1, week 1, Apr. 13, 2011",19.8 g and 18.8 g and 18.7 g
same,Wt,"[2]; Dose 1, week 1, Apr. 14, 2011",19.8 g and 18.7 g and 19.1 g
same,Wt,"[2]; Dose 1, week 1, Apr. 15, 2011",19.5 g and 19.01 g and 18.8 g
same,Wt,"[2]; Dose 2 (about 200 mg/kg i.p.), week 1, Apr. 11, 2011, individual mice",18.7 g and 18.2 g and 19.1 g
same,Wt,"[2]; Dose 2, 2nd week of treatment, Apr. 18, 2011",19.3 g and 19.1 g and 19.5 g
same,Wt,"[2]; Dose 2, 2nd week, Apr. 19, 2011",19.1 g and 19.3 g and 19.5 g
same,Wt,"[2]; Dose 2, 2nd week, Apr. 20, 2011",18.8 g and 19 g
same,Wt,"[2]; Dose 2, 2nd week, Apr. 21, 2011",19 g and 19.4 g
same,Wt,"[2]; Dose 2, 2nd week, Apr. 22, 2011",18.9 g and 19.5 g and 20 g
same,Wt,"[2]; Dose 2, week 1, Apr. 12, 2011",17.8 g and 17.7 g and 18.2 g
same,Wt,"[2]; Dose 2, week 1, Apr. 13, 2011",19.07 g and 18.8 g
same,Wt,"[2]; Dose 2, week 1, Apr. 14, 2011",19.03 g and 18.8 g and 19.1 g
same,Wt,"[2]; Dose 2, week 1, Apr. 15, 2011",18.7 g and 18.2 g and 19.6 g
same,Log10GI50,MOLT-4,−5.53
same,Log10LC50,MOLT-4,>−4.00
same,Log10TGI,MOLT-4,−5.04
same,Log10GI50,RPMI-8226,−5.57
same,Log10LC50,RPMI-8226,>−4.00
same,Log10TGI,RPMI-8226,>−4.00
same,Log10GI50,SR,−5.43
same,Log10LC50,SR,>−4.00
same,Log10TGI,SR,>−4.00
same,Log10GI50,A549/ATCC,−5.37
same,Log10LC50,A549/ATCC,>−4.00
same,Log10TGI,A549/ATCC,>−4.00
same,Log10GI50,HOP-62,>−4.00
same,Log10LC50,HOP-62,>−4.00
same,Log10TGI,HOP-62,>−4.00
same,Log10GI50,NCI-H322M,−5.34
same,Log10LC50,NCI-H322M,>−4.00
same,Log10TGI,NCI-H322M,>−4.00
same,Log10GI50,NCI-H522,−5.66
same,Log10LC50,NCI-H522,>−4.00
same,Log10TGI,NCI-H522,−5.11
same,Log10GI50,HCC-2998,−5.25
same,Log10LC50,HCC-2998,−4.46
same,Log10TGI,HCC-2998,>−4.00
same,Log10GI50,KM12,−5.46
same,Log10LC50,KM12,>−4.00
same,Log10TGI,KM12,>−4.00
same,Log10GI50,SF-268,−5.55
same,Log10LC50,SF-268,>−4.00
same,Log10TGI,SF-268,>−4.00
same,Log10GI50,SF-295,−5.61
same,Log10LC50,SF-295,>−4.00
same,Log10TGI,SF-295,−4.77
same,Log10GI50,M14,−5.40
same,Log10LC50,M14,>−4.00
same,Log10TGI,M14,>−4.00
same,Log10GI50,SK-MEL-5,−5.69
same,Log10LC50,SK-MEL-5,−5.05
same,Log10TGI,SK-MEL-5,−5.37
same,Log10GI50,NCI/ADR-RES,−5.58
same,Log10LC50,NCI/ADR-RES,>−4.00
same,Log10TGI,NCI/ADR-RES,>−4.00
same,Log10GI50,A498,−5.74
same,Log10LC50,A498,>−4.00
same,Log10TGI,A498,−5.17
same,Log10GI50,UO-31,−5.76
same,Log10LC50,UO-31,>−4.00
same,Log10TGI,UO-31,>−4.00
same,Log10GI50,PC-3,−5.44
same,Log10LC50,PC-3,>−4.00
same,Log10TGI,PC-3,>−4.00
same,Log10GI50,DU145,−5.40
same,Log10LC50,DU145,>−4.00
same,Log10TGI,DU145,>−4.00
same,Log10GI50,MCF7,−5.47
same,Log10LC50,MCF7,>−4.00
same,Log10TGI,MCF7,−4.82
same,Log10GI50,HS 578T,−5.53
same,Log10LC50,HS 578T,>−4.00
same,Log10TGI,HS 578T,−5.04

# Reference: patent US8772268B2, “Bisphosphonamidate prodrugs and uses thereof” (The Johns Hopkins University, priority 2010, dated 2014)
